From patent US10138253B2, “Imidazopyridine macrocycles as inhibitors of human immunodeficiency virus replication” (priority 2015, dated 2018)
Where two headings read alike, the source gives them in different places.

Tests used:
[1] = ether bond, PPh3/DIAD, THF
[2] = ether bond, 20-membered ring, PPh3/DIAD, THF
[3] = from COC(=O)[C@@H](OC(C)(C)C)c1c(C)c(C)c2nc(-c3cccc(-c4ccc(C)cc4O)c3)cn2c1N1CCC(C)(OCCOC[C@@H](C)O)CC1, 20.0 mM, 0.5 h
[4] = from COC(=O)[C@@H](OC(C)(C)C)c1c(C)cc2nc(-c3cccc(-c4c(O)cc(C)cc4F)c3)cn2c1N1CCC(C)(OCCOC[C@@H](C)O)CC1, 42.7 mM, 0.5 h, 2 steps
[5] = from COC(=O)[C@@H](OC(C)(C)C)c1c(C)cc2nc(-c3cccc(-c4ccc(C)cc4O)c3)cn2c1N1CCC(C)(OCCOC[C@@H](C)O)CC1, 1.41 mM, 1.0 h
[6] = from COC(=O)[C@@H](OC(C)(C)C)c1c(C)cc2nc(-c3cccc(-c4cc(F)c(F)cc4O)c3)cn2c1N1CCC(C)(OCCOC[C@@H](C)O)CC1, 10.0 mM, 0.5 h
[7] = from COC(=O)[C@@H](OC(C)(C)C)c1c(C)cc2nc(-c3cccc(-c4cc(C)ccc4O)c3)cn2c1N1CCC(C)(OCCOC[C@@H](C)O)CC1, 39.2 mM, 18.0 h, 2 steps

In the case of `COC(=O)[C@@H](OC(C)(C)C)c1c(C)c(C)c2nc3cn2c1N1CCC(C)(CC1)OCCOC[C@H](C)Oc1cc(C)ccc1-c1cccc-3c1`, the ring closure, yield of all isomers [1, 3] is reported as 47% and the ring closure, isolated yield [2, 3] is reported as 47%.

Work on `COC(=O)[C@@H](OC(C)(C)C)c1c(C)cc2nc3cn2c1N1CCC(C)(CC1)OCCOC[C@H](C)Oc1cc(C)cc(F)c1-c1cccc-3c1` yielded a ring closure, yield of all isomers [1, 4] of 6% and a ring closure, isolated yield [2, 4] of 6%.

For `COC(=O)[C@@H](OC(C)(C)C)c1c(C)cc2nc3cn2c1N1CCC(C)(CC1)OCCOC[C@H](C)Oc1cc(C)ccc1-c1cccc-3c1`, the ring closure, yield of all isomers [1, 5] was 65% and the ring closure, isolated yield [2, 5] was 65%.

`COC(=O)[C@@H](OC(C)(C)C)c1c(C)cc2nc3cn2c1N1CCC(C)(CC1)OCCOC[C@H](C)Oc1cc(F)c(F)cc1-c1cccc-3c1` showed a ring closure, yield of all isomers [1, 6] of 95% and a ring closure, isolated yield [2, 6] of 95%.

Compound `COC(=O)[C@@H](OC(C)(C)C)c1c(C)cc2nc3cn2c1N1CCC(C)(CC1)OCCOC[C@H](C)Oc1ccc(C)cc1-c1cccc-3c1` has a ring closure, yield of all isomers [1, 7] of 65% and a ring closure, isolated yield [2, 7] of 65%.
